According to PubChem BioAssay AID192 (DTP/NCI, 2004):
Several values for one entry are separate records, joined by “and”; a condition that tells them apart may be missing. Equal values may be shown once. Toxic doses and inconclusive results are not listed. Rule for the calls: active = survival T/C of 150% or more; inactive = T/C below 125% in these data.

Tested on: BDF1 mice, B16 melanoma ip, median survival T/C
Experiment: NCI In Vivo Anticancer Drug Screen. Data for tumor model B16 Melanoma (intraperitoneal) in B6D2F1 (BDF1) mice
Conditions: endpoint: median survival time, higher = longer survival
Outline: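 Antitumor activity is assessed in mice bearing a transplanted tumor, with survival or tumor size compared against vehicle-dosed controls and expressed as T/C.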

[1] = dose: 100.0 mg/kg/injection, schedule: Q01DX009 (ip), vehicle: Klucel (hydroxypropylcellulose) (HPC)
[2] = dose: 200.0 mg/kg/injection, schedule: Q01DX009 (ip), vehicle: Klucel (hydroxypropylcellulose) (HPC)
[3] = dose: 400.0 mg/kg/injection, schedule: Q01DX009 (ip), vehicle: Klucel (hydroxypropylcellulose) (HPC)
[4] = dose: 25.0 mg/kg/injection, schedule: Q01DX009 (ip), vehicle: Klucel (hydroxypropylcellulose) (HPC)
[5] = dose: 50.0 mg/kg/injection, schedule: Q01DX009 (ip), vehicle: Klucel (hydroxypropylcellulose) (HPC)
[6] = dose: 25.0 mg/kg/injection, schedule: Q01DX009 (ip), vehicle: saline
[7] = dose: 5.0 mg/kg/injection, schedule: Q01DX009 (ip), vehicle: saline with Tween-80
[8] = dose: 25.0 mg/kg/injection, schedule: Q01DX009 (ip), vehicle: saline with Tween-80
[9] = dose: 50.0 mg/kg/injection, schedule: Q01DX009 (ip), vehicle: saline with Tween-80
[10] = dose: 100.0 mg/kg/injection, schedule: Q01DX009 (ip), vehicle: saline with Tween-80
[11] = dose: 12.5 mg/kg/injection, schedule: Q01DX009 (ip), vehicle: Klucel (hydroxypropylcellulose) (HPC)
[12] = dose: 1.56 mg/kg/injection, schedule: Q01DX009 (ip), vehicle: Klucel (hydroxypropylcellulose) (HPC)
[13] = dose: 6.25 mg/kg/injection, schedule: Q01DX009 (ip), vehicle: Klucel (hydroxypropylcellulose) (HPC)
[14] = dose: 50.0 mg/kg/injection, schedule: Q01DX009 (ip), vehicle: saline
[15] = dose: 100.0 mg/kg/injection, schedule: Q01DX009 (ip), vehicle: saline
[16] = dose: 200.0 mg/kg/injection, schedule: Q01DX009 (ip), vehicle: saline
[17] = dose: 400.0 mg/kg/injection, schedule: Q01DX009 (ip), vehicle: saline

Measured: T/C

C[C@H](N)C(=O)N[C@@H]1[C@H]2C(=C(O)C[C@@H](O)[C@@H]2O)C(=O)O[C@@H]1C
inactive: dose: 150.0 mg/kg/injection, schedule: Q01DX009 (ip), vehicle: saline 100 % of control | dose: 300.0 mg/kg/injection, schedule: Q01DX009 (ip), vehicle: saline 102 % of control | dose: 600.0 mg/kg/injection, schedule: Q01DX009 (ip), vehicle: saline 106 % of control | dose: 1200.0 mg/kg/injection, schedule: Q01DX009 (ip), vehicle: saline 116 % of control

Cc1ccc(NC(=O)c2cccc(C(=O)Nc3ccc(C)c(Cl)c3)c2)cc1Cl
inactive: [1] 97 % of control | [2] 105 % of control | [3] 97 % of control

COc1cc2c(cc1OC)C1CCN3CCCC3N1CC2 (stereo unspecified)
inactive: [4] 105 % of control | [5] 105 % of control | [1] 86 % of control and 100 % of control and 116 % of control

CN(C)CCCN1c2ccccc2Sc2c(Cl)cc(Cl)cc21
inactive: dose: 3.12 mg/kg/injection, schedule: Q01DX009 (ip), vehicle: saline 97 % of control | dose: 6.25 mg/kg/injection, schedule: Q01DX009 (ip), vehicle: saline 105 % of control | dose: 12.5 mg/kg/injection, schedule: Q01DX009 (ip), vehicle: saline 102 % of control | [6] 87 % of control

O=C1C2C(C(=O)N1c1ccc(OCc3ccccc3)cc1)C1c3ccccc3C2C2CCCCN21 (stereo unspecified)
inactive: dose: 3.13 mg/kg/injection, schedule: Q01DX009 (ip), vehicle: water 103 % of control | dose: 6.25 mg/kg/injection, schedule: Q01DX009 (ip), vehicle: water 98 % of control | dose: 12.5 mg/kg/injection, schedule: Q01DX009 (ip), vehicle: water 104 % of control

CC(O)C(=O)[O][Hg][c]1ccccc1 (stereo unspecified)
inactive: dose: 2.5 mg/kg/injection, schedule: Q01DX009 (ip), vehicle: saline with Tween-80 102 % of control | [7] 102 % of control

O=C(O)C1CCCCC1C(=O)Nc1ccc(F)cc1 (stereo unspecified)
inactive: [8] 105 % of control | [9] 105 % of control | [10] 88 % of control and 96 % of control

Oc1ccc2ccccc2c1C1=NNc2n[nH]c(=S)n2N1
inactive: [11] 100 % of control | [4] 103 % of control | [5] 112 % of control

c1cc(OCC2CO2)ccc1OCC1CO1 (stereo unspecified)
inactive: [11] 100 % of control | [4] 105 % of control | [5] 110 % of control | [1] 120 % of control

CC(=O)c1c(O)c(C)c(O)c2c1OC1=CC(=O)C(C(C)=O)C(=O)C12C (stereo unspecified)
inactive: dose: 5.0 mg/kg/injection, schedule: Q01DX009 (ip), vehicle: gum acacia 107 % of control | dose: 6.25 mg/kg/injection, schedule: Q01DX009 (ip), vehicle: gum acacia 92 % of control | dose: 12.5 mg/kg/injection, schedule: Q01DX009 (ip), vehicle: gum acacia 108 % of control | dose: 20.0 mg/kg/injection, schedule: Q01DX009 (ip), vehicle: gum acacia 100 % of control | dose: 40.0 mg/kg/injection, schedule: Q01DX009 (ip), vehicle: gum acacia 102 % of control | dose: 50.0 mg/kg/injection, schedule: Q01DX009 (ip), vehicle: gum acacia 108 % of control | dose: 80.0 mg/kg/injection, schedule: Q01DX009 (ip), vehicle: gum acacia 105 % of control | dose: 100.0 mg/kg/injection, schedule: Q01DX009 (ip), vehicle: gum acacia 97 % of control

Cc1noc2c1ncc[n+]2[O-]
inactive: [7] 108 % of control | dose: 10.0 mg/kg/injection, schedule: Q01DX009 (ip), vehicle: saline with Tween-80 119 % of control | dose: 20.0 mg/kg/injection, schedule: Q01DX009 (ip), vehicle: saline with Tween-80 116 % of control

CS(=O)(=O)ON1C(=O)c2ccccc2C1=O
inactive: [12] 100 % of control | dose: 3.12 mg/kg/injection, schedule: Q01DX009 (ip), vehicle: Klucel (hydroxypropylcellulose) (HPC) 98 % of control | [13] 94 % of control

COC1CCCCC1I (stereo unspecified)
inactive: dose: 50.0 mg/kg/injection, schedule: Q01DX009 (ip), vehicle: alcohol 100 % of control | dose: 75.0 mg/kg/injection, schedule: Q04DX003 (ip), vehicle: alcohol 95 % of control | dose: 100.0 mg/kg/injection, schedule: Q01DX009 (ip), vehicle: alcohol 92 % of control | dose: 150.0 mg/kg/injection, schedule: Q04DX003 (ip), vehicle: alcohol 92 % of control

O=C(Cc1ccc2cc3c(cc2c1)OCO3)NCCc1ccc2c(c1)OCO2
inactive: [1] 105 % of control | [2] 94 % of control | [3] 91 % of control

COc1ccc(OC)c(/C=C/C(=O)c2ccc(Cl)cc2)c1
inactive: [1] 92 % of control | dose: 100.0 mg/kg/injection, schedule: Q04DX003 (ip), vehicle: Klucel (hydroxypropylcellulose) (HPC) 103 % of control | [2] 92 % of control | dose: 200.0 mg/kg/injection, schedule: Q04DX003 (ip), vehicle: Klucel (hydroxypropylcellulose) (HPC) 109 % of control | [3] 89 % of control | dose: 400.0 mg/kg/injection, schedule: Q04DX003 (ip), vehicle: Klucel (hydroxypropylcellulose) (HPC) 103 % of control

CCOC(=O)N(Cc1ccccc1)C1CC1
inactive: dose: 0.78 mg/kg/injection, schedule: Q04DX003 (ip), vehicle: saline 101 % of control | dose: 1.56 mg/kg/injection, schedule: Q04DX003 (ip), vehicle: saline 93 % of control | dose: 3.12 mg/kg/injection, schedule: Q04DX003 (ip), vehicle: saline 97 % of control | dose: 6.25 mg/kg/injection, schedule: Q04DX003 (ip), vehicle: saline 101 % of control | dose: 12.5 mg/kg/injection, schedule: Q04DX003 (ip), vehicle: saline 105 % of control | [6] 105 % of control | [14] 100 % of control | [15] 94 % of control | [16] 102 % of control | [17] 107 % of control

Nc1ccc(OC(F)(F)C(F)Cl)cc1 (stereo unspecified)
inactive: [1] 86 % of control | [2] 96 % of control | [3] 103 % of control

COC1C(O)C(C)OC(OC2CC(O)C3(C)C(CCC4C3CCC3(C)C(C5=CC(=O)OC5)CCC43O)C2)C1O (stereo unspecified) (tested in a mixture with another compound)
inactive: dose: 2.0 mg/kg/injection, schedule: Q01DX009 (ip), vehicle: saline 99 % of control | dose: 4.0 mg/kg/injection, schedule: Q01DX009 (ip), vehicle: saline 97 % of control | dose: 8.0 mg/kg/injection, schedule: Q01DX009 (ip), vehicle: saline 97 % of control | dose: 16.0 mg/kg/injection, schedule: Q01DX009 (ip), vehicle: saline 94 % of control | dose: 32.0 mg/kg/injection, schedule: Q01DX009 (ip), vehicle: saline 94 % of control | dose: 64.0 mg/kg/injection, schedule: Q01DX009 (ip), vehicle: saline 88 % of control

O=Cc1ccc(C=O)c(Cl)c1
inactive: [5] 97 % of control | [1] 109 % of control | [2] 107 % of control | [3] 104 % of control

CN(C)CCCN=Cc1cc(Cl)ccc1O.CN(C)CCCN=Cc1cc(Cl)ccc1O.[Ni+2]
inactive: dose: 6.25 mg/kg/injection, schedule: Q01DX009 (ip), vehicle: saline with Tween-80 122 % of control | dose: 12.5 mg/kg/injection, schedule: Q01DX009 (ip), vehicle: saline with Tween-80 116 % of control | [8] 111 % of control

CCOC(=O)C(CC)(CCC(C)C)C(=O)OCC
inactive: [8] 102 % of control | [9] 99 % of control | [10] 97 % of control

CCc1c2cc3c(cc2cc2c4cc5c(cc4cc[n+]12)OCO5)OCO3 (tested in a mixture with another compound)
inactive: [12] 103 % of control | dose: 3.13 mg/kg/injection, schedule: Q01DX009 (ip), vehicle: Klucel (hydroxypropylcellulose) (HPC) 106 % of control | [13] 106 % of control

CC#CCOCC1CN(c2ccccc2)C(=O)O1 (stereo unspecified)
inactive: [6] 102 % of control | [14] 97 % of control | [15] 102 % of control | dose: 100.0 mg/kg/injection, schedule: Q04DX003 (ip), vehicle: saline with Tween-80 97 % of control | [16] 100 % of control | dose: 200.0 mg/kg/injection, schedule: Q04DX003 (ip), vehicle: saline with Tween-80 94 % of control | [17] 97 % of control | dose: 400.0 mg/kg/injection, schedule: Q04DX003 (ip), vehicle: saline with Tween-80 94 % of control
